In patent US20050276764A1, “Topical use of bis-arylimidazo[1,2-a]thiolane derivatives” (Beiersdorf AG, priority 2002, published 2005):

Experiments:
Format in all cases: cell-based
[1] = test system: LTB4 release by human neutrophile granulocytes stimulated with fMLP; assay: Release of LTB4 by fMLP-stimulated human neutrophile granulocytes; details: for Inhibition of LTB4 release: human neutrophile granulocytes, fMLP-stimulated, supernatant LTB4 2 hours later, FIG. 3
Experimental: A second test method was used to determine the influence of imidazoles on the release of LTB4 by stimulated granulocytes. Human neutrophile granulocytes from the peripheral blood were isolated, cultured and stimulated for LTB4 production with formylated methionyl-leucyl-phenylalanine (fMLP). Specifically, human neutrophile granulocytes were stimulated with fMLP and 2 hours later the supernatant LTB4 content was determined. Either BayX1005 with standard effects or dilutions of DKH derivatives were added to the fMLP-stimulated cultures. Non-stimulated cultures and cultures only stimulated with fMLP were measured as a control test.

3T3 cells = assay: 3T3 NRU Phototoxicity Assay (COLIPA Validation Ring Study 1997), neutral red absorption; details: for NR50 irradiated / NR50 non-irradiated: 3T3 cells, concentration at which neutral red absorption has fallen to 50% of the check value; for NR50 irradiated: UV-irradiated cultures; for NR50 non-irradiated: non-irradiated cultures; for Phototoxicity in comparison to the non-oxidized comparative compound: photocytotoxicity tests, versus 4,5-bis(4-methoxyphenyl)-imidazo[1,2-a]thiolane; for Quotient non-irradiated/irradiated PIF: ratio of NR50 non-irradiated to irradiated, the lower the quotient, the lower the phototoxicity
Experimental: The photocytotoxicity of 4,5-bis(4-methoxyphenyl)-imidazo[1,2-a]thiolane-1-oxide and 4,5-bis(4-methoxyphenyl)-imidazo[1,2-a]thiolane-1-dioxide in comparison to 4,5-bis(4-methoxyphenyl)-imidazo[1,2-a]thiolane according to standard protocol “3T3 NRU Phototoxicity Assay” of the COLIPA Validation Ring Study of 1997 is shown in FIG. 1.
In the test method used, the change to the neutral red absorption of 3T3 cells is measured by UV irradiation. Only vital cells absorb the dye, a reduced absorption thus indicates a toxicity of the test substance added. The so-called NR50 value is typically determined for evaluation, i.e. those concentrations of the test substance for which the neutral red absorption has fallen to 50% of the check value. In order to determine the phototoxicity, this value is determined for non-irradiated and irradiated cultures and put in a ratio. The lower the quotient, the lower the phototoxicity (see Table 1).

[2] = test system: prostaglandin E2 (PGE2) production in human fibroblasts stimulated with LPS; assay: Inhibition of LPS-induced PGE2 production in human fibroblasts; details: for Inhibition of PGE2 production: human fibroblasts, LPS-stimulated, supernatant PGE2 24 hours later, FIG. 2
Experimental: The influence of 4,5-bis(4-methoxyphenyl)-imidazo[1,2-a]thiolane-1-oxide and 4,5-bis(4-Methoxyphenyl)-imidazo[1,2-a]thiolane-1-dioxide in comparison to 4,5-bis(4-methoxyphenyl)-imidazo[1,2-a]thiolane on eicosanoid production is illustrated in FIG. 2. For the samples in FIG. 2, human fibroblasts were stimulated with LPS and 24 hours later the supernatant PGE2 content was determined. Either Diclofenac with standard effects or dilutions of DKH derivatives were added to the LPS-stimulated cultures. Non-stimulated cultures and cultures only stimulated with LPS were measured as a control test.
Human fibroblasts in culture were induced to release prostaglandin E2 (PGE2) by means of lipopolysaccharide (LPS). Inhibition of this PGE2 production by imidazoles was then determined in the test.

Row | Structure (SMILES) | Production of leukotriene B4 in granulocytes [1] | Inhibition of LTB4 release [1] | NR50 irradiated (3T3 cells) | NR50 non-irradiated (3T3 cells) | Phototoxicity in comparison to the non-oxidized comparative compound (3T3 cells) | Quotient non-irradiated/irradiated PIF (3T3 cells) | Production of prostaglandin E2 in fibroblasts [2] | Inhibition of PGE2 production [2]
1 | COc1ccc(-c2nc3n(c2-c2ccc(OC)cc2)CC[S+]3[O-])cc1 (stereo not shown) [4,5-bis(4-methoxyphenyl)-imidazo[1,2-a]thiolane-1-oxide] | considerably reduced | improved inhibition of LTB4 release | >42.3 mg/L | >100 mg/L | considerably reduced phototoxicity | >2.4 | considerably reduced | sufficient inhibition in the concentration range below one microgram per millimeter
2 | COc1ccc(-c2nc3n(c2-c2ccc(OC)cc2)CCS3(=O)=O)cc1 [4,5-bis(4-methoxyphenyl)-imidazo[1,2-a]thiolane-1-dioxide] | considerably reduced | improved inhibition of LTB4 release | 7.77 mg/L | >50 mg/L | considerably reduced phototoxicity | >6.4 | considerably reduced | sufficient inhibition in the concentration range below one microgram per millimeter
3 | COc1ccc(-c2nc3n(c2-c2ccc(OC)cc2)CCS3)cc1 [4,5-bis(4-methoxyphenyl)-imidazo[1,2-a]thiolane, reference compound] |  |  | 0.177 mg/L | >10 mg/L |  | >56 |  | 
